In paper PMC10254170, “Diastereoselective Synthesis of the Borylated D-Galactose Monosaccharide 3-Boronic-3-Deoxy-D-Galactose and Biological Evaluation in Glycosidase Inhibition and in Cancer for Boron Neutron Capture Therapy (BNCT)” (Molecules, 2023):
Read-outs that look alike come from different tables or passages of the source.

How the values were obtained:
[1] = molecular target: T1, coffee beans α-galactosidase (Coffea arabica, UniProt Q42656); experiment: Glycosidase inhibition, coffee beans α-galactosidase; format: biochemical
T1 construct: purchased Sigma-Aldrich Co
T1 sequence (Q42656 16-378): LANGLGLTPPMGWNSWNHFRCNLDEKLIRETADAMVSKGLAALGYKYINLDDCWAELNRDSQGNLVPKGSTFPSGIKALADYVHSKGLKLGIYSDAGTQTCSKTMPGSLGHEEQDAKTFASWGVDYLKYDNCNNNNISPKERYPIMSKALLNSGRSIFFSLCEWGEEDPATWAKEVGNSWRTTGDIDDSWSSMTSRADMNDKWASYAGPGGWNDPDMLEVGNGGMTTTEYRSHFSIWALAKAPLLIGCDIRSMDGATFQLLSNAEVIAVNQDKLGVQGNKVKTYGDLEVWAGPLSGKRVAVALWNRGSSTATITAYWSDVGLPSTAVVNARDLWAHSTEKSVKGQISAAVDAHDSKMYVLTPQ
Excerpt: Glycosidase modulation studies need to explore selectivity as well as potency. Our drugs and controls are therefore screened against a panel of glycosidases in methanol (Table 1) to identify the glycosidase-related disease area(s), selectivity profile, and potency of biological action for each drug. The presence of organic boron covalently bonded to the drug structure also grants a reduced toxicity profile. Following the glycosidase inhibition range recommendations, an IC50 value >250 μm denotes weak inhibition, 100–249 μm denotes moderate inhibition, 10–99 μm good inhibition, 0.1–9 μm potent inhibition, and <0.1 μm very potent inhibition. […] Our boronated D-galactose 7 represents a novel lead in glycosidase inhibition.
The glycosidases screened are the following: rice α-glucosidase, yeast α-glucosidase, Bacillus α-glucosidase, rat intestinal maltase α-glucosidase, almond β-glucosidase, bovine liver β-glucosidase, coffee beans α-galactosidase, bovine liver β-galactosidase, Jack bean α-mannosidase, snail β-mannosidase, Penicillium decumbens α-L-rhamnosidase, bovine kidney α-L-fucosidase, Eschierichia coli β-glucuronidase, bovine liver β-glucuronidase, porcine kidney trehalase, Aspergillus niger amyloglucosidase, and bovine kidney N-acetyl-β-glucosaminidase. The disease areas for each glycosidase are summarized in [1].
The enzymes α-glucosidase (from yeast), β-glucosidases (from almond and bovine liver), α-galactosidase (from coffee beans), β-galactosidase (from bovine liver), α-mannosidase (from Jack bean), β-mannosidase (from snail), α-L-rhamnosidase (from Penicillium decumbens), α-L-fucosidase (from bovine kidney), trehalase (from porcine kidney), β-glucuronidases (from E. coli and bovine liver), amyloglucosidase (from A. niger), para-nitrophenyl glycosides, and various disaccharides were purchased from Sigma-Aldrich Co.
Brush border membranes were prepared from the rat small intestine according to the method of Kessler et al. and were assayed at pH 6.8 for rat intestinal maltase using maltose. For rat intestinal maltase, porcine kidney trehalase, and A. niger amyloglucosidase activities, the reaction mixture contained 25 mM maltose and the appropriate amount of enzyme, and the incubations were performed for 10–30 min at 37 °C. The reaction was stopped by heating at 100 °C for 3 min. After centrifugation (600 g; 10 min), the resulting reaction mixture was added to the Glucose CII-test Wako (Wako Pure Chemical Ind., Osaka, Japan). The absorbance at 505 nm was measured to determine the amount of the released D-glucose. Other glycosidase activities were determined using an appropriate para-nitrophenyl glycoside as substrate at the optimum pH of each enzyme. The reaction mixture contained 2 mM of the substrate and the appropriate amount of enzyme. The reaction was stopped by the addition of 400 mM Na2CO3. The released para-nitrophenol was measured spectrometrically at 400 nm. All reactions run in methanol.

[2] = system: MCF10A (non-tumor-derived normal breast cell line); experiment: Cancer screening (MTT growth inhibition), MCF10A; format: cell-based; conditions: 72 h; for inhibition at 25 µM / Percentage (%) cell growth inhibition: 25 µM of drug, n = 3, mean ± SEM; for inhibition at 25 µM: read-out: Percentage (%) cell growth inhibition
Procedure: (§1) All test agents were prepared as stock solutions (20 mM) in dimethyl sulfoxide (DMSO) and stored at −20 °C. Cell lines used in the study included: HT29 (colorectal carcinoma), U87 and SJ-G2 (glioblastoma), MCF-7 (breast carcinoma), A2780 (ovarian carcinoma), H460 (lung carcinoma), A431 (skin carcinoma), Du145 (prostate carcinoma), BE2-C (neuroblastoma), MiaPaCa-2 (pancreatic carcinoma), SMA560 (spontaneous murine astrocytoma), and ADDP (Cis Res Ovarian), together with one non-tumor-derived normal breast cell line (MCF10A). All cell lines were incubated in a humidified atmosphere with 5 % CO2 at 37 °C. The cancer cell lines were maintained in Dulbecco’s modified Eagle’s medium (DMEM; Sigma, Australia) supplemented with fetal bovine serum (10%), sodium pyruvate (10 mM), penicillin (100 IUmL^−1), streptomycin (100 µg mL^−1), and L-glutamine (2 mM).
The non-cancer MCF10A cell line was maintained in DMEM:F12 (1:1) cell culture media, 5% heat inactivated horse serum, and supplemented with penicillin (50 IUmL^−1), streptomycin (50 µg mL^−1), HEPES (20 mM), L-glutamine (2 mM), epidermal growth factor (20 ng mL^−1), hydrocortisone (500 ng mL^−1), cholera toxin (100 ng mL^−1), and insulin ([…]).
(§2) Growth inhibition was determined by plating cells in duplicate in medium (100 µL) at a density of 2500–4000 cells per well in 96-well plates. On day 0 (24 h after plating), when the cells are in logarithmic growth, medium (100 µL) with or without the test agent was added to each well. After 72 h of drug exposure, growth inhibitory effects were evaluated using the (3-(4,5-dimethyltiazol-2-yl)-2,5-diphenyltetrazolium bromide) (MTT) assay and absorbance read at 540 nm. The percentage growth inhibition was calculated at a fixed concentration of 25 µM, based on the difference between the optical density values on day 0 and those at the end of drug exposure. Each data point is the mean ± the standard error of the mean (SEM) calculated from three replicates, which were performed on separate occasions and in separate cell line passages.

[3] = system: all cell lines (cancer cell lines and normal cell line); experiment: Cancer screening, all cell lines; format: cell-based; conditions: all cancer cell lines and the normal cell line
Procedure: as §1, with “The cancer cell lines were maintained in Dulbecco’s modified Eagle’s medium (DMEM; Sigma, Australia) supplemented with fetal bovine serum (10%), sodium pyruvate (10 mM), penicillin (100 IUmL^−1), streptomycin (100 µg mL^−1), and L-glutamine (2 mM).” left out
as §2, with “On day 0 (24 h after plating), when the cells are in logarithmic growth, medium (100 µL) with or without the test agent was added to each well.” left out

Solubility in water = format: physicochemical
[4] = system: ADDP (Cis Res Ovarian) cell line; experiment: Cancer screening (MTT growth inhibition), ADDP; format: cell-based
Procedure: as §1, with “The cancer cell lines were maintained in Dulbecco’s modified Eagle’s medium (DMEM; Sigma, Australia) supplemented with fetal bovine serum (10%), sodium pyruvate (10 mM), penicillin (100 IUmL^−1), streptomycin (100 µg mL^−1), and L-glutamine (2 mM).” left out
as §2, with “On day 0 (24 h after plating), when the cells are in logarithmic growth, medium (100 µL) with or without the test agent was added to each well.” left out

[5] = at 100 μM, in methanol, read-out: inhibition %
[6] = at 100 μM, read-out: NI: No inhibition

## N[C@@H](Cc1ccc(B(O)O)cc1)C(=O)O [BPA, 4-borono-L-phenylalanine]
[1]; [5]
  inhibition at 100 µM: 4.3%
[1]; [6]
  inhibition at 100 µM: < 50%
[2]; Homo sapiens, MCF-10A
  inhibition at 25 µM: 4 ± 1%

## CC1(C)OCC(C2OC3OC(C)(C)OC3C2[B-]23OCC[NH+]2CCO3)O1 [Compound 6, 3-Deoxy-3-Boronodiethanolamine-1,2:5,6-Di-O-isopropylidene-α-D-galactofuranose]
[1]; [5]
  inhibition at 100 µM: 0.5%
[1]; [6]
  inhibition at 100 µM: < 50%
[2]; Homo sapiens, MCF-10A
  inhibition at 25 µM: 5 ± 1%
[3]
  GI50: > 50 µM
Solubility in water
  solubility in water: soluble in water

## OCC1OC(O)C(O)C(B(O)O)C1O [Compound 7, 3-Boronic-3-Deoxy-D-galactose]
[4]; 25 µM of drug, 72 h, MTT
  inhibition at 25 µM: 2%
[4]; dose response, unit from table title
  GI50: > 50 µM
[1]; at 1000 μM, in methanol, read-out: inhibition %
  inhibition at 1000 µM: 0%
[1]; at 1000 μM, read-out: NI: No inhibition
  inhibition at 1000 µM: < 50%
[2]; Homo sapiens, MCF-10A
  inhibition at 25 µM: 7 ± 3%
[2]; Homo sapiens, MCF-10A, dose response, read-out: GI50 = Concentration that inhibits cell growth by 50%
  GI50: > 50 µM
[3]
  GI50: > 50 µM
Solubility in water
  solubility in water: soluble in water

## N[C@@H](Cc1ccc(B(O)O)cc1)C(=O)O [^10B-BPA]
[1]; at 100 μM, in methanol
  inhibition %: 1.2%
[2]
  Percentage (%) cell growth inhibition: <0%

## Borocaptate sodium [BSH]
[1]; at 1000 μM, in methanol
  inhibition %: 12.3%
[2]
  Percentage (%) cell growth inhibition: 8 ± 3%
